For the series, the target named is T1, MMP-13 (Homo sapiens, UniProt P45452).
T1 construct: purchased Reaction Biology Corporation, Malvern, PA, USA (contract assay service)
The experiment in a line: MMP-13 in vitro inhibition assay (FRET peptide substrate). Format: biochemical. Particulars: for LE (Ligand Efficiency): 1.4(−logIC50)/N, N = number of non-hydrogen atoms; for LLE (lipophilic ligand efficiency): LLE = pIC50 - clogP; for remaining activity at 10 µM: at 10 μM inhibitor concentration, read-out: % Activity (remaining enzyme activity); for remaining activity at 10 µM / IC50: triplicate; for IC50: 10 concentrations starting at 10 μM. The protocol:
Consecutively the synthesized compounds were tested for their inhibition activity against MMP-13 in in vitro assays. The values are averaged over triplicate determinations (Table 1).
The substrate used for the determinations was the (5-FAM/QXLTM) FRET peptide. The buffer consisted of 50 mM HEPES at pH 7.5 with 10 mM CaCl2 and 0.01% Brij-35. 0.1 mg/mL BSA was added before use. As a control inhibitor GM6001 was used.

Structures are written as SMILES.

One may read the remaining activity as the share of the control activity or signal that is left under treatment. The IC50 is the concentration at which inhibition is half-maximal.

As to `O=C(Cc1cccc(OCCCCCO)c1)Nc1ccc2c(c1)C(=O)N(Cc1ccccc1)C2=O` [Compound 2, N-(2-benzyl-1,3-dioxo-2,3-dihydro-1H-isoindol-5-yl)-2-{3-[(5-hydroxypentyl)oxy]phenyl}acetamide], the “LE (Ligand Efficiency)” value is on record as 0.24, the “LLE (lipophilic ligand efficiency)” value is listed as 1.53, the remaining activity at 10 µM was 9.1 ± 0.9% and 822 ± 210 nM corresponded to half-maximal inhibition (IC50).

With `O=C(O)CCCCCOc1cccc(CC(=O)Nc2ccc3c(c2)C(=O)N(Cc2ccccc2)C3=O)c1` [Compound 16, 6-(3-{[(2-benzyl-1,3-dioxo-2,3-dihydro-1H-isoindol-5-yl)carbamoyl]methyl}phenoxy)hexanoic acid], the “LE (Ligand Efficiency)” value is listed as 0.25, the “LLE (lipophilic ligand efficiency)” value stood at 1.70, the remaining activity at 10 µM is 2.6 ± 0.3% and half-maximal inhibition (IC50) required 280 ± 40 nM.

With `O=C(Cc1cccc(OCCCO)c1)Nc1ccc2c(c1)C(=O)N(Cc1ccccc1)C2=O` [Compound 11, N-(2-benzyl-1,3-dioxo-2,3-dihydro-1H-isoindol-5-yl)-2-[3-(3-hydroxypropoxy)phenyl]acetamide], the “LE (Ligand Efficiency)” value is listed as 0.26, the “LLE (lipophilic ligand efficiency)” value was 2.55, the remaining activity at 10 µM is 7.9 ± 0.4% and it took 586 ± 130 nM to reach half-maximal inhibition (IC50).

`CS(=O)(=O)NC(=O)CCOc1cccc(CC(=O)Nc2ccc3c(c2)C(=O)N(Cc2ccccc2)C3=O)c1` [Compound 17, 3-(3-{[(2-benzyl-1,3-dioxo-2,3-dihydro-1H-isoindol-5-yl)carbamoyl]methyl}phenoxy)-N-methanesulfonylpropanamide]: the remaining activity at 10 µM came to 30.5 ± 0.8%.

Turning to `CNC(=O)CCCCOc1cccc(CC(=O)Nc2ccc3c(c2)C(=O)N(Cc2ccccc2)C3=O)c1` [Compound 5, 5-(3-{[(2-benzyl-1,3-dioxo-2,3-dihydro-1H-isoindol-5-yl)carbamoyl]methyl}phenoxy)-N-methylpentanamide], the “LE (Ligand Efficiency)” value is 0.25, the “LLE (lipophilic ligand efficiency)” value turned out to be 2.45, the remaining activity at 10 µM was 6.7 ± 0.5% and it took 328 ± 50 nM to reach half-maximal inhibition (IC50).

On to `O=C(O)CCCCOc1cccc(CC(=O)Nc2ccc3c(c2)C(=O)N(Cc2ccccc2)C3=O)c1` [Compound 3, 5-(3-{[(2-benzyl-1,3-dioxo-2,3-dihydro-1H-isoindol-5-yl)carbamoyl]methyl}phenoxy)pentanoic acid], for which the “LE (Ligand Efficiency)” value turned out to be 0.27; the “LLE (lipophilic ligand efficiency)” value is 2.46; the remaining activity at 10 µM was found to be 2.4 ± 0.1%; the midpoint of inhibition, the IC50, lay at 134 ± 40 nM.

For `O=C(Cc1cccc(OCCCCCCO)c1)Nc1ccc2c(c1)C(=O)N(Cc1ccccc1)C2=O` [Compound 13, N-(2-benzyl-1,3-dioxo-2,3-dihydro-1H-isoindol-5-yl)-2-{3-[(6-hydroxyhexyl)oxy]phenyl}acetamide], the remaining activity at 10 µM worked out at 33 ± 2.9%.

`O=C(O)CCCOc1cccc(CC(=O)Nc2ccc3c(c2)C(=O)N(Cc2ccccc2)C3=O)c1` [Compound 15, 4-(3-{[(2-benzyl-1,3-dioxo-2,3-dihydro-1H-isoindol-5-yl)carbamoyl]methyl}phenoxy)butanoic acid]: the “LE (Ligand Efficiency)” value is given as 0.24, the “LLE (lipophilic ligand efficiency)” value is recorded as 2.16, the remaining activity at 10 µM was found to be 4.6 ± 0.6% and 777 ± 50 nM corresponded to half-maximal inhibition (IC50).

In the case of `CS(=O)(=O)NC(=O)CCCCOc1cccc(CC(=O)Nc2ccc3c(c2)C(=O)N(Cc2ccccc2)C3=O)c1` [Compound 4, 5-(3-{[(2-benzyl-1,3-dioxo-2,3-dihydro-1H-isoindol-5-yl)carbamoyl]methyl}phenoxy)-N-methanesulfonylpentanamide], the “LE (Ligand Efficiency)” value stood at 0.21, the “LLE (lipophilic ligand efficiency)” value is recorded as 2.53, the remaining activity at 10 µM amounted to 13.8 ± 1.4% and 767 ± 80 nM corresponded to half-maximal inhibition (IC50).

On to `O=C(O)CCOc1cccc(CC(=O)Nc2ccc3c(c2)C(=O)N(Cc2ccccc2)C3=O)c1` [Compound 14, 3-(3-{[(2-benzyl-1,3-dioxo-2,3-dihydro-1H-isoindol-5-yl)carbamoyl]methyl}phenoxy)propanoic acid], for which the remaining activity at 10 µM amounted to 15.4 ± 0.3%.

For the molecule `CS(=O)(=O)NC(=O)CCCOc1cccc(CC(=O)Nc2ccc3c(c2)C(=O)N(Cc2ccccc2)C3=O)c1` [Compound 18, 4-(3-{[(2-benzyl-1,3-dioxo-2,3-dihydro-1H-isoindol-5-yl)carbamoyl]methyl}phenoxy)-N-methanesulfonylbutanamide], the “LE (Ligand Efficiency)” value is listed as 0.22, the “LLE (lipophilic ligand efficiency)” value was found to be 2.91, the remaining activity at 10 µM was found to be 11.2 ± 0.3% and the IC50 stood at 896 ± 60 nM.

For the molecule `O=C(Cc1cccc(OCCCCO)c1)Nc1ccc2c(c1)C(=O)N(Cc1ccccc1)C2=O` [Compound 12, N-(2-benzyl-1,3-dioxo-2,3-dihydro-1H-isoindol-5-yl)-2-[3-(4-hydroxybutoxy)phenyl]acetamide], the “LE (Ligand Efficiency)” value came to 0.26, the “LLE (lipophilic ligand efficiency)” value was 2.22, the remaining activity at 10 µM came out at 7.6 ± 0.5% and the IC50 was 454 ± 200 nM.

Values taken from publication PMC4813177, “Molecular Recognition of the Catalytic Zinc(II) Ion in MMP-13: Structure-Based Evolution of an Allosteric Inhibitor to Dual Binding Mode Inhibitors with Improved Lipophilic Ligand Efficiencies” (International Journal of Molecular Sciences, 2016).
